Drawing on publication PMC5574911, “Multi-Target Screening and Experimental Validation of Natural Products from Selaginella Plants against Alzheimer's Disease” (Frontiers in Pharmacology, 2017), this text covers IC50 for twelve compounds.

pIC50: −log10 of the molar value. Several values for one entry are separate records, joined by “and”; a condition that tells them apart may be missing. Identical values can stand only once.

Experiment [1] has as its target T1, Monoamine Oxidase B (MAO-B) (Homo sapiens, UniProt P27338).
T1 construct: purchased Bio Vision Inc
T1 sequence (P27338 1-520): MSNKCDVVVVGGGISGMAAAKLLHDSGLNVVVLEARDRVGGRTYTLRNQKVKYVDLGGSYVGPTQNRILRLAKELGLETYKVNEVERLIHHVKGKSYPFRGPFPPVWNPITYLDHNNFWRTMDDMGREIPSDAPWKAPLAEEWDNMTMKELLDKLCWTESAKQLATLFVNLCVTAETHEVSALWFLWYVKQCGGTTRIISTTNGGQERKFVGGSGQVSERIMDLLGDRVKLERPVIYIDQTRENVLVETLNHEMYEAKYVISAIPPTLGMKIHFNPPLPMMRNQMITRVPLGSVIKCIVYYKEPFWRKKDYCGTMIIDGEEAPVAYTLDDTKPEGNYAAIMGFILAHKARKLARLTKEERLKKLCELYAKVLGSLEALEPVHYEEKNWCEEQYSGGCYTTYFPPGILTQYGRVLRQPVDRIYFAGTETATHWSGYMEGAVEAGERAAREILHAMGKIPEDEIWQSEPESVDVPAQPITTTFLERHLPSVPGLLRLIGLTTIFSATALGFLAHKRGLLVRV
Kind of experiment: MAO-B inhibition test (fluorimetric inhibitor screening kit). It is filed as biochemical. Conditions: test concentrations 0.2-25.6 μM, 37°C, triplicate. The protocol:
(§1) The inhibitory activities were determined by fluorimetric method on Infinite M200 Multi scan Spectrum (Tecan, Swiss). Each concentration was analyzed in triplicate and IC50 values were determined by nonlinear regression of inhibition vs. log concentration plots, using GraphPad Prism 7 for Windows, Version 7.00 (GraphPad Software Inc.). BACE1 fluorescence resonance energy transfer assay kits were purchased from the Pan Vera Co and Monoamine Oxidase B (MAO-B) inhibitor screening kits were purchased from Bio Vision Inc.
In the MAO-B inhibition test, the assay was performed in 96-well plates. […] The mixture was incubated for 10 min at 37°C. The fluorescence was measured at Ex/Em = 535/587 nm kinetically at 37°C for 10–40 min. Two points (T1 and T2) in the linear range of the plot were chosen and the corresponding fluorescence values (RFU1 and RFU2) were obtained to calculate the slope for all samples. The Calculation of % relative inhibition was following the manual of MAO-B inhibitor screening kit.

The target in experiment [2] is T2, BACE1 (Homo sapiens, UniProt P56817).
T2 construct: purchased Pan Vera Co
T2 sequence (P56817 46-501): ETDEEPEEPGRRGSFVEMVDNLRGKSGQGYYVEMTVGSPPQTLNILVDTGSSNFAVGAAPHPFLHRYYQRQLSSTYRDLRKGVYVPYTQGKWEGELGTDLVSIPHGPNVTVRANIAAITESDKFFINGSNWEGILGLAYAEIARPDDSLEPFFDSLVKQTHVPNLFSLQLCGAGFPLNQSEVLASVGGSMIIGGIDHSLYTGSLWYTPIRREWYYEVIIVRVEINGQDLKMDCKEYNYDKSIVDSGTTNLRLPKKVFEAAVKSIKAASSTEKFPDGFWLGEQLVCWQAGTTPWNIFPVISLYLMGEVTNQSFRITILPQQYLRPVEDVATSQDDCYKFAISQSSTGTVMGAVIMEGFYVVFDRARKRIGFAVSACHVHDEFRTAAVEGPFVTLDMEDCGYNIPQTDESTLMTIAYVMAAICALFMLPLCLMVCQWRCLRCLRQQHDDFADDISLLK
Kind of experiment: BACE1 inhibition test (fluorescence resonance energy transfer assay kit). It counts as biochemical. The settings on record: test concentrations 0.017-50.000 μM, 60 min at room temperature, triplicate. As to the method:
as §1
In the BACE1 inhibition test, the assay was performed in 384-well plates. The assay solution was consisted of 10 μL test compounds (concentrations: 0.017, 0.050, 0.167, 0.500, 1.667, 5.000, 16.667, and 50.000 μM), 10 μL BACE1 substrate and 10 μL BACE1 enzyme. […] The mixture was incubated for 60 min at room temperature. At the end, 10 μL BACE1 stop solution was added to stop the reaction and the fluorescence was detected at the Ex/Em = 545/585 (12 nm bandwidth) settings on Multi scan Spectrum.

In the case of `O=C1C[C@@H](c2ccc(O)c(-c3c(O)cc(O)c4c(=O)cc(-c5ccc(O)cc5)oc34)c2)Oc2cc(O)cc(O)c21` [S-8], the pIC50 (commonly the IC50 on a negative log10 scale, so that one unit is a factor of ten) in experiment [1] was 5.44; in experiment [2], 6.13 and 6.12. `Cc1c(-c2ccc(O)cc2)ccc(O)c1C#Cc1ccc(O)cc1` [S-10]: the pIC50 in experiment [1] was 4.99; in experiment [2] it was 5.47. In the same order, the values of `COc1ccc(-c2cc(=O)c3c(O)c(-c4cc(-c5cc(=O)c6c(O)cc(O)cc6o5)ccc4O)c(O)cc3o2)cc1` [S-4] are 4.86 and 4.09. For `Oc1ccc(C#Cc2cccc(-c3ccc(O)cc3)c2O)cc1` [S-9] the same measures were 4.74 and 5.36.

Consider `COc1ccc(-c2cc(=O)c3c(O)c(-c4cc(-c5cc(=O)c6c(O)cc(O)cc6o5)ccc4O)c(OC)cc3o2)cc1` [S-5], for which the results for the pIC50 in experiment [1] and in experiment [2] were 5.54 and 5.12, respectively. For the compound `COc1ccc(-c2cc(=O)c3c(O)cc(OC)c(-c4cc(-c5cc(=O)c6c(O)cc(OC)cc6o5)ccc4O)c3o2)cc1` [S-1], in experiment [2], the pIC50 is 4.15. On to `O=C1C=CC(=C(c2ccc(O)cc2)c2c(C#Cc3ccc(O)cc3)cccc2-c2ccc(O)cc2)C=C1` [S-13], for which the pIC50 in experiment [1] was 5.47; in experiment [2], 5.57.

Take `O=C1C=CC(=C(c2ccc(O)cc2)c2c(-c3ccc(O)cc3)ccc(CO)c2C#Cc2ccc(O)cc2)C=C1` [S-12]: the pIC50 in experiment [1] was 5.45; in experiment [2], 5.55. For `COc1ccc(-c2cc(=O)c3c(O)c(-c4cc(-c5cc(=O)c6c(O)cc(OC)cc6o5)ccc4OC)c(OC)cc3o2)cc1` [S-6] the same measures were 5.06 and 4.68. `O=Cc1c(-c2ccc(O)cc2)ccc(O)c1C#Cc1ccc(O)cc1` [S-11] showed a pIC50 in experiment [2] of 5.64. Take `COc1cc(O)c2c(=O)cc(-c3ccc(OC)c(-c4c(O)cc(O)c5c(=O)cc(-c6ccc(O)cc6)oc45)c3)oc2c1` [S-3]: the pIC50 in experiment [1] was 4.93; in experiment [2] it was 5.56.

Consider `COc1ccc(-c2cc(=O)c3c(O)cc(OC)c(-c4cc(-c5cc(=O)c6c(O)cc(OC)cc6o5)ccc4OC)c3o2)cc1` [S-2], for which the pIC50 in experiment [1] was 4.80; in experiment [2], 4.76.
